Measured values taken from ChEMBL document CHEMBL5625231, “Targeting autophagy with small-molecule activators for potential therapeutic purposes” (Eur J Med Chem, 2023).
Blank lines part the entries; values can stand above or below the compound they belong to.

How the values were obtained:
[1] = Activation of AMPK in rat hepatocyte using SAMS as substrate incubated for 30 mins in presence of [gamma-33P]ATP; type: cell-based
Transcription factor EB = biological target: T1, Transcription factor EB (Homo sapiens, UniProt P19484); assay: Binding affinity to full length N-terminal his6-tagged human TFEB expressed in Escherichia coli by isothermal titration calorimetry analysis
T1 sequence (P19484 whole entry): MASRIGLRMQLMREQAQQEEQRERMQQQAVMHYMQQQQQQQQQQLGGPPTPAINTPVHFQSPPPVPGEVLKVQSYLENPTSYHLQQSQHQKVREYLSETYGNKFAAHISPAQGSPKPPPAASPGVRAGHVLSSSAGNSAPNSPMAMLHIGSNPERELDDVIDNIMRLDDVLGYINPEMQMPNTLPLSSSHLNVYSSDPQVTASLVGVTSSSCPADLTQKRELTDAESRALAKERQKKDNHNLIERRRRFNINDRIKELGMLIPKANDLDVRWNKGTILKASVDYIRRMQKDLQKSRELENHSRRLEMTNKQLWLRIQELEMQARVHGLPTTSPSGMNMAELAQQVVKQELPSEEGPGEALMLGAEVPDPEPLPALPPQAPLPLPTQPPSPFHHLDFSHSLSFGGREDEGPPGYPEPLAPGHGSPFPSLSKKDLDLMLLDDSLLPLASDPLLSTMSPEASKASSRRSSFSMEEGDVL

MDA-MB-231 = assay: Antiproliferative activity against human MDA-MB-231 cells assessed reduction in cell viability incubated for 24 hrs by MTT assay; type: functional, cell-based; settings: MDA-MB-231, 24 h
[2] = biological target: T2, Serine/threonine-protein kinase ULK1 (Homo sapiens) (UniProt O75385); assay: Agonist activity at ULK1 (unknown origin) at 100 nM incubated for 60 mins in presence of ATP by ADP-glo assay relative to control; settings: filed as agonist
T2 sequence (whole entry): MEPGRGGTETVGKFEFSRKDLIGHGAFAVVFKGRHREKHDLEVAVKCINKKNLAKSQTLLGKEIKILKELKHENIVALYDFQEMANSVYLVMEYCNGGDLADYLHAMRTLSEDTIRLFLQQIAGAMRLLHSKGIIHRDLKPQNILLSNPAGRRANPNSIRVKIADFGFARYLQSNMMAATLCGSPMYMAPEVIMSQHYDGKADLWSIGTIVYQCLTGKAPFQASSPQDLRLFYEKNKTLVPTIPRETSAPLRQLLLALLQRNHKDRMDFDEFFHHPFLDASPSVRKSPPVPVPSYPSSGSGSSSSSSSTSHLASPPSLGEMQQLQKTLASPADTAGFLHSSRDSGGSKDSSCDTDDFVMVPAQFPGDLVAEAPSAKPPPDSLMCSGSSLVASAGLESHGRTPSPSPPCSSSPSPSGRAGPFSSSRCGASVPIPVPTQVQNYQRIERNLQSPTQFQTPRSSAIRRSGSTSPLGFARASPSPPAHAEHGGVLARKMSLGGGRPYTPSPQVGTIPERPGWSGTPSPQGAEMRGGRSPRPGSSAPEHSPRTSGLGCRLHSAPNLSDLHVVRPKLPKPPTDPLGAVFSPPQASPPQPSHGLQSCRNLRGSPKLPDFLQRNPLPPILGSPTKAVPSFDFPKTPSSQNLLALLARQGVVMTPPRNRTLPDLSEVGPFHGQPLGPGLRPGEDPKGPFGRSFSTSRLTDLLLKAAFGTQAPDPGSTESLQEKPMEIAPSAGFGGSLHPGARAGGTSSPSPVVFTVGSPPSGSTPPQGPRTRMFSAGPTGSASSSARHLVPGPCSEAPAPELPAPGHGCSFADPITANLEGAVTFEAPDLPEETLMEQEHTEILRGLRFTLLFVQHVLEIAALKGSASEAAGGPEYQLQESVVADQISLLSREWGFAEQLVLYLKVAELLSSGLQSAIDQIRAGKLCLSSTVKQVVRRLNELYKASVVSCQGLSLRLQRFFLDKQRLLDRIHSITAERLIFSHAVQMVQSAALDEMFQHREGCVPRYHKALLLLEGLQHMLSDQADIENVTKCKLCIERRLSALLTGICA

Forkhead box protein O1 = Forkhead box protein O1 (Homo sapiens, UniProt Q12778); assay: Activation of FoxO1(unknown origin)
Forkhead box protein O1, sequence (Q12778 whole entry): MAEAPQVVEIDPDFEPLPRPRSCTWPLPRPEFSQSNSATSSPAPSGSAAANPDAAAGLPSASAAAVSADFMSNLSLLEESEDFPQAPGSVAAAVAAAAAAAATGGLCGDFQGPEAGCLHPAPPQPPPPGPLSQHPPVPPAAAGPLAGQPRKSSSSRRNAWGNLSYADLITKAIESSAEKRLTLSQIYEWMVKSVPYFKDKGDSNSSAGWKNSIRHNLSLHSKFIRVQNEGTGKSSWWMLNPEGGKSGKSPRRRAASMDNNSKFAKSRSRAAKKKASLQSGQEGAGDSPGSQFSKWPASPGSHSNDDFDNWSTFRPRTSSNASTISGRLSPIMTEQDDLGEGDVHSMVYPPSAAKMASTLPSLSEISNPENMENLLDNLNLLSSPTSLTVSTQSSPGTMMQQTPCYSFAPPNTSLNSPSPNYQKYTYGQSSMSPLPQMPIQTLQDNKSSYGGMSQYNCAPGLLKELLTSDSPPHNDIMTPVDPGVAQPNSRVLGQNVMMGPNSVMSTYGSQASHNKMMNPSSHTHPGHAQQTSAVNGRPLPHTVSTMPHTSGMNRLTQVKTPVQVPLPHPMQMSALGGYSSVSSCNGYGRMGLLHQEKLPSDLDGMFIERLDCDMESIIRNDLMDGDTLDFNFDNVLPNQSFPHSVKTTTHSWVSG

SMILES: N#Cc1c(O)c2c(-c3ccc(-c4ccccc4O)cc3)csc2[nH]c1=O
EC50 [1]: 800 nM

EC50 (Transcription factor EB): 2170 nM
SMILES: COc1ccccc1/C=C/C(=O)/C=C/c1ccccc1OC

IC50 (MDA-MB-231): 20900 nM | Activity [2]: 154%
SMILES: CC(C)(C)OC(=O)N1CCN(CC(OCc2ccc3ccccc3c2)c2ccc(Cl)cc2Cl)CC1 (stereo not drawn)

Activity [2]: 196%
SMILES: CC(C)CN(CC(=O)N1CCN(CC(OCc2ccc3ccccc3c2)c2ccc(Cl)cc2Cl)CC1)CC(C)C (stereo not drawn)

SMILES: N#Cc1c(O)c2c(-c3ccccc3)csc2[nH]c1=O
EC50 [1]: 38000 nM

IC50 (MDA-MB-231): 750 nM
SMILES: COC(=O)Nc1nc2cc(C(=O)c3ccc(F)cc3)ccc2[nH]1 [FLUBENDAZOLE]

EC50 (Forkhead box protein O1): 420 nM
SMILES: Cc1[nH]c2ccccc2c1CCNCc1ccc(/C=C/C(=O)NO)cc1 [PANOBINOSTAT]
